Experimental data: the supplement of paper PMC12669032

Tests used:
Assay in all cases: growth AUC relative to DMSO control (fraction); higher = more growth (less inhibition)
Conditions in all cases: 24 h
Bacteroides uniformis = tested on: Bacteroides uniformis
Experimental: (§1)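 Validation screen: 11 independently purchased pesticides tested on 8 gut bacterial strains at 2.5–320 µM in mGAM, anaerobic, 37 °C, 24 h. Growth AUC normalised to DMSO controls, mean of 3 independent experiments.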

Clostridium difficile = tested on: Clostridium difficile
Experimental: as §1

Escherichia coli IAI1 = tested on: Escherichia coli IAI1
Experimental: as §1

Eubacterium rectale = tested on: Eubacterium rectale
Experimental: as §1

Lactobacillus gasseri = tested on: Lactobacillus gasseri
Experimental: as §1

[1] = tested on: Parabacteroides distasonis
Experimental: as §1

Roseburia intestinalis = tested on: Roseburia intestinalis
Experimental: as §1

Streptococcus salivarius = tested on: Streptococcus salivarius
Experimental: as §1

N#Cc1c(Cl)c(Cl)c(Cl)c(C#N)c1Cl [CHLOROTHALONIL]
growth AUC
Conditions | Bacteroides uniformis | Clostridium difficile | Escherichia coli IAI1 | Eubacterium rectale | Lactobacillus gasseri | Roseburia intestinalis | Streptococcus salivarius | [1]
2.5 µM | 1.04 | 1.03 | 1.02 | 1.07 | 1.02 | 0.978 | 1.08 | 1.13
5 µM | 1.01 | 1.01 | 0.986 | 0.894 | 1.03 | 1.01 | 0.963 | 1.04
10 µM | 0.981 | 0.963 | 1.01 | 0.836 | 1 | 0.91 | 1 | 0.921
20 µM | 0.889 | 0.993 | 0.974 | 0.593 | 0.925 | 0.713 | 0.907 | 0.961

CC[C@H](C)[C@H]1O[C@]2(C=C[C@@H]1C)C[C@@H]1C[C@@H](C/C=C(\C)[C@@H](O[C@H]3C[C@H](OC)[C@@H](O[C@H]4C[C@H](OC)[C@@H](NC)[C@H](C)O4)[C@H](C)O3)[C@@H](C)/C=C/C=C3\CO[C@@H]4[C@H](O)C(C)=C[C@@H](C(=O)O1)[C@]34O)O2.O=C(O)c1ccccc1 [EMAMECTIN BENZOATE]
growth AUC
Conditions | Bacteroides uniformis | Clostridium difficile | Escherichia coli IAI1 | Eubacterium rectale | Lactobacillus gasseri | Roseburia intestinalis | Streptococcus salivarius | [1]
2.5 µM | 1.03 | 1.01 | 1.06 | 1.03 | 1.01 | 0.859 | 1.08 | 1.09
5 µM | 1.04 | 0.987 | 1.02 | 1.04 | 1.01 | 0.396 | 1 | 0.898
10 µM | 0.992 | 0.916 | 1 | 0.693 | 0.949 | 0.0369 | 1.02 | 0.487
20 µM | 1.03 | 0.967 | 0.979 | 0.0185 | 0.822 | 0.0348 | 0.938 | 0.0163
40 µM | 0.839 | 0.654 | 1.05 | 0.0159 | 0.848 | 0.0127 | 1.14 | 0.00619
80 µM | 0.669 | 0.0139 | 1.04 | 0.0289 | 1.02 | 0.00913 | 1.16 | 0.0234
160 µM | 0.732 | 0.0469 | 1.06 | 0.126 | 1.07 | 0.0441 | 1.27 | 0.0419

CCCN(CCOc1c(Cl)cc(Cl)cc1Cl)C(=O)n1ccnc1 [PROCHLORAZ]
growth AUC
Conditions | Bacteroides uniformis | Clostridium difficile | Escherichia coli IAI1 | Eubacterium rectale | Lactobacillus gasseri | Roseburia intestinalis | Streptococcus salivarius | [1]
2.5 µM | 1 | 0.989 | 1 | 0.748 | 1.01 | 0.993 | 1.01 | 0.957
5 µM | 0.994 | 0.977 | 0.987 | 0.524 | 1 | 1.02 | 0.995 | 0.858
10 µM | 0.938 | 0.956 | 0.966 | 0.397 | 0.944 | 0.949 | 0.973 | 0.68
20 µM | 0.92 | 1.01 | 0.956 | 0.125 | 0.931 | 0.718 | 0.945 | 0.608
40 µM | 0.886 | 0.875 | 0.988 | 0.0225 | 0.957 | 0.594 | 0.984 | 0.363
80 µM | 0.812 | 0.913 | 0.989 | 0.0308 | 0.903 | 0.0292 | 0.962 | 0.0195
160 µM | 0.767 | 0.391 | 0.983 | 0.0176 | 0.836 | 0.0197 | 0.935 | 0.0246
